# Paper PMC6143625, “A high throughput screen for next-generation leads targeting malaria parasite transmission” (Nature Communications, 2018)
# Tests used:
# [1] = tested on: P. falciparum stage V female gametocytes (female gamete formation); assay: P. falciparum dual gamete formation assay (Pf DGFA), female readout (Pfs25 expression), 48 h carry-over format; format: cell-based, Plasmodium falciparum NF54; conditions: primary screen, 2 uM, 48 h incubation, single replicate
# [2] = tested on: P. falciparum stage V male gametocytes (male gamete formation); assay: P. falciparum dual gamete formation assay (Pf DGFA), male readout (exflagellation), 48 h carry-over format; format: cell-based, Plasmodium falciparum NF54; conditions: primary screen, 2 uM, 48 h incubation, single replicate
Compound,%Inhibition Female @2uM [1],%Inhibition Male @2uM [2]
Cc1cc(NCc2ccc(O)cc2)n2nc(C)cc2n1 [DDD01253811],99.46%,<30%
CC(C)OC(=O)N1CCC(Cc2cccc(C(N)=O)c2)C1 (stereo not drawn) [DDD01254183],<30%,132.02%
CSc1ccc(C(=O)N2CCCC(Nc3ccc(F)cc3)C2)cc1 (stereo not drawn) [DDD01254674],<30%,162.04%
Cc1oc(-c2ccoc2)nc1CN1CCCCC1CCc1ccccc1 (stereo not drawn) [DDD01254868],<30%,143.16%
O=C(CSc1ccncc1)N1CCC2(CC1)c1ccccc1CC2O (stereo not drawn) [DDD01255239],<30%,143.16%
CN(Cc1nccn1C)C1CCCN(CCCc2ccccc2)C1 (stereo not drawn) [DDD01255359],<30%,61.22%
CCc1nnc(CNC(=O)CCN2CCN(c3cccc(C)c3)CC2)s1 [DDD01255634],<30%,133.78%
Cc1ccc(CN2CCN(C(=O)c3ccc(CO)cc3)C(C)C2=O)cc1 (stereo not drawn) [DDD01255654],38.25%,<30%
COC(=O)C1CCN(C(=O)c2cccc(NS(C)(=O)=O)c2C)CC1 [DDD01255952],<30%,126.32%
COc1cccc2c1OCC(C(=O)N1CCC(NS(C)(=O)=O)CC1)C2 (stereo not drawn) [DDD01255971],<30%,160.00%
Cc1ccccc1C(=O)Nc1ccc(OC2CCN(C)CC2)cc1 [DDD01256105],<30%,177.06%
Cc1cnn(CCCN2C(=O)CCc3ccccc32)c1 [DDD01256166],<30%,31.82%
Cc1ccc(CN2CCCC(c3nnc(CN4CCCC4)n3C)C2)s1 (stereo not drawn) [DDD01256510],<30%,109.47%
COCCN(C)CCN1CC2(CCN(C3CCOCC3)CC2)OC1=O [DDD01256592],<30%,44.84%
O=C(O)CCc1cc2n(n1)CCCN(C(=O)c1cc3ccccc3s1)C2 [DDD01256606],30.77%,<30%
CC(C)(CNC1CCCN(Cc2ccccn2)C1)CN1CCOCC1 (stereo not drawn) [DDD01256674],31.10%,<30%
Cc1cc(C(=O)N2CCC(c3nccn3Cc3ccccn3)CC2)no1 [DDD01256728],<30%,88.77%
CCOCC(=O)N1CCC(c2nccn2CC2CC2)CC1 [DDD01256942],<30%,104.28%
CN(C)C(=O)N1C[C@H]2CC[C@@H](C1)N(C/C=C/c1ccc(F)cc1)C2 [DDD01256992],32.94%,<30%
COc1ccc(C(=O)N2CCOC3(CNCCOC3)C2)c(OC)n1 (stereo not drawn) [DDD01257050],<30%,126.32%
CN(Cc1ccccc1CN1CCCC1)C(=O)c1c[nH]c(=O)[nH]1 [DDD01257093],34.04%,<30%
Cc1ccc(F)cc1CC(=O)N(CCN1CCOCC1)Cc1ccco1 [DDD01257151],36.90%,<30%
O=C1N(CCC2CCCCC2)CCCC1(O)CNCCc1ccccc1 (stereo not drawn) [DDD01257222],<30%,147.75%
CCn1cc(CN(C)C(=O)c2cccc(CCC(C)(C)O)c2)cn1 [DDD01257573],32.19%,<30%

Compound,%Inhibition Female @2uM [1],%Inhibition Male @2uM [2]
CN(CCO)Cc1nnc(C2CCN(C3CCCCC3)CC2)n1C [DDD01257771],30.00%,<30%
COc1ccc(C(=O)C2CCCN(Cc3ccncc3)C2)c(OC)c1 (stereo not drawn) [DDD01257881],31.13%,<30%
c1cn(Cc2nnc(C3CCN(c4nccs4)CC3)n2C2CC2)cn1 [DDD01257895],34.43%,<30%
Cc1nn(C)cc1C(=O)N1C[C@@H]2CC[C@H]1CN(S(=O)(=O)N(C)C)C2 [DDD01257957],39.59%,<30%
Cc1cc(C)nc(N2Cc3cnn(Cc4ccc(F)cc4)c3C2)n1 [DDD01258067],46.44%,<30%
COc1cc(C)c(CN2CCC3(CC2)C(C(=O)O)CC(=O)N3C)cc1C (stereo not drawn) [DDD01258170],46.51%,<30%
COc1cccc(S(=O)(=O)NC(=O)CC2CCCO2)c1 (stereo not drawn) [DDD01295262],46.83%,<30%
Cc1nn(C)c(C)c1CCC(=O)N1CCCC(n2cccn2)C1 (stereo not drawn) [DDD01296064],<30%,47.51%
Cc1cn2c(n1)CCC(NC(=O)Cn1cncn1)C2 (stereo not drawn) [DDD01296301],57.78%,<30%
NC(=O)COc1ccc(C(=O)N2CCCC(n3ccnc3)C2)cc1 (stereo not drawn) [DDD01296946],40.74%,<30%
Cc1cnn(CC2CCCN2Cc2nnc(C(C)C)o2)c1 (stereo not drawn) [DDD01296988],33.35%,60.45%
CN(Cc1nnc(C2CC2)n1C)C1CCN(Cc2nccn2C)C1 (stereo not drawn) [DDD01296990],<30%,57.47%
CCS(=O)(=O)N1CCC(NC(=O)c2cc(C)ccc2O)CC1 [DDD01297269],56.83%,<30%
CC(C)CCc1nc(CNCC2CCCN2c2cccnn2)cs1 (stereo not drawn) [DDD01297850],39.30%,<30%
CCc1nnc2n1CCN(C(=O)c1nc(-c3ccco3)sc1C)C2 [DDD01298399],<30%,30.87%
CN1CCOC(CNCc2coc(-c3ccccc3Cl)n2)C1 (stereo not drawn) [DDD01298713],<30%,34.66%
O=C(c1ccc(-n2ccnc2)cc1)N1CCCC(n2ccnc2)C1 (stereo not drawn) [DDD01298772],36.32%,<30%
Cc1cc(NC(=O)CN2CCc3cnc(C(C)C)nc3C2)on1 [DDD01298964],41.23%,<30%
Cc1cc(C)cc(OCCN2CCn3c(C)nnc3C2)c1 [DDD01299569],31.60%,<30%
CCN1CCN(Cc2csc(C(C)C)n2)CC1 [DDD01301366],<30%,30.44%
CC(C)COC(C)C(=O)NCc1ccc(-n2cncn2)nc1 (stereo not drawn) [DDD01301486],33.08%,<30%
COc1ccc(-c2nc(CNCCn3cccn3)cs2)cc1 [DDD01301541],31.18%,<30%
CC(CC(=O)NS(=O)(=O)c1ccc2c(c1)OCCO2)c1ccc(F)cc1 (stereo not drawn) [DDD01301601],38.27%,<30%
c1cnc(-c2nc(CN3CCn4c(nnc4C4CC4)C3)cs2)nc1 [DDD01301615],32.48%,<30%
